For 14 compounds, IC50 results are on record in the Kinase Knowledgebase extract (Sharma et al. 2016).

The target of the assay is PIK3CA (human) (UniProt P42336). The assay is described as follows: Assessment of PIK3CA Kinase Activity.
PIK3CA (human), sequence (P42336 whole entry, looked up): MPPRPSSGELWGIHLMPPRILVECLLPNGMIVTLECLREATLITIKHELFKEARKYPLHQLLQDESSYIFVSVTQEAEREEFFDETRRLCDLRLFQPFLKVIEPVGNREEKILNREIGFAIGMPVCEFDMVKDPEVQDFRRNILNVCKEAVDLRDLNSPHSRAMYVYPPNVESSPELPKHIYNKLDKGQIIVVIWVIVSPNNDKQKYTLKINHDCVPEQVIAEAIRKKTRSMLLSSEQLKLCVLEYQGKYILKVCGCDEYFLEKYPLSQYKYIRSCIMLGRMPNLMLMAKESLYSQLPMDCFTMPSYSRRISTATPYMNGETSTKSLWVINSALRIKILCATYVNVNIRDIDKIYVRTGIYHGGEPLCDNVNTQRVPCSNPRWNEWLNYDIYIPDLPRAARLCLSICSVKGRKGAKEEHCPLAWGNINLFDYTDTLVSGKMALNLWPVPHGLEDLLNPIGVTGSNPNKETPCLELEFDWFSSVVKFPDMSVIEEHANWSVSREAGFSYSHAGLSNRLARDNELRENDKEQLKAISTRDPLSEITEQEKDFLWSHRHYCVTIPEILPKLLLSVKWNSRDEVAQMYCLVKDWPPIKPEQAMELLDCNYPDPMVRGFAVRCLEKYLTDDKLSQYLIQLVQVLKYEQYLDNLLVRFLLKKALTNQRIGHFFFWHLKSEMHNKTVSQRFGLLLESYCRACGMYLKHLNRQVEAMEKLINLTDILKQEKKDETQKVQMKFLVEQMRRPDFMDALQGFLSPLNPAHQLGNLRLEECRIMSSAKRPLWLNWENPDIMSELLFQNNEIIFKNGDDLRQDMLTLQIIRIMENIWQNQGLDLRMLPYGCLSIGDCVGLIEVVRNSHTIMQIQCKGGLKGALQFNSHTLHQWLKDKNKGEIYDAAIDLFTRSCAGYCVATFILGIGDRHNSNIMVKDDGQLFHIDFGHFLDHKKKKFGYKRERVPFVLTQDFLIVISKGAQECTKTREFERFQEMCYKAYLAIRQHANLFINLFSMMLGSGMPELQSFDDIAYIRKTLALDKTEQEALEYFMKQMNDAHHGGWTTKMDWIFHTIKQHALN

As for `COCc1cc2ccccc2n1-c1nc(N2CCOCC2)c2nc(CN3CCC(C(C)(C)O)CC3)n(C)c2n1`, the IC50 (as a rule, the concentration that gives 50% inhibition) amounted to 5390 nM.

Compound `CN(C)C1CCN(Cc2cc3nc(-n4ccc5cc(O)ccc54)nc(N4CCOCC4)c3s2)CC1` registered an IC50 of 814 nM.

`CN(C)C1CCN(Cc2cc3nc(-n4ccc5ccccc54)nc(N4CCOCC4)c3s2)CC1` had an IC50 of 562 nM.

`c1ccc2c(-c3nc(N4CCOCC4)c4nc(CN5CC(N6CCOCC6)C5)sc4n3)c[nH]c2c1` showed an IC50 of 396 nM.

Take `Cc1cc2cc(F)ccc2n1-c1nc(N2CCOCC2)c2sc(CN3CCC(N(C)C)CC3)cc2n1`: the IC50 came out at 1600 nM.

The compound `O=C1COC2(CCN(Cc3cc4nc(-c5c[nH]c6ccccc56)nc(N5CCOCC5)c4s3)CC2)CN1` came in with an IC50 of 1380 nM.

`CC(C)(OCCN1CCCC1)c1cc2nc(-c3c[nH]c4ccccc34)nc(N3CCOCC3)c2s1` showed a 50% inhibitory concentration (IC50) of 529 nM.

`CN(C)[C@@H]1CCN(Cc2nc3c(N4CCOCC4)nc(-c4c[nH]c5ccccc45)nc3n2C)C[C@@H]1F` gave an IC50 of 720 nM.

Turning to `CN(C)C1CCN(Cc2cc3nc(-c4c[nH]c5ccc(F)cc45)nc(N4CCOCC4)c3s2)CC1`, the concentration for half-maximal inhibition (IC50) was found to be 1330 nM.

On to `CN(C)C1CCN(Cc2cc3nc(N4CCc5ccccc54)nc(N4CCOCC4)c3s2)CC1`, for which the IC50 was found to be 707 nM.

Compound `CN(C)C1CCN(Cc2cc3nc(-c4c[nH]c5ccccc45)nc(N4CCOCC4)c3s2)CC1` came in with an IC50 of 495 nM.

Consider `Cn1c(CN2CCC(N3CCOCC3)CC2)nc2c(N3CCOCC3)nc(-c3c[nH]c4ccccc34)nc21`, for which the IC50 is 5010 nM.

`Cn1c(CN2CCC(C(C)(C)O)CC2)nc2c(N3CCOCC3)nc(-n3c(C#N)cc4ccccc43)nc21` gave an IC50 of 5300 nM.

`CC(C)(C(N)=O)N1CCN(Cc2cc3nc(-c4c(C#N)[nH]c5ccccc45)nc(N4CCOCC4)c3s2)CC1` yielded a half-maximal inhibitory concentration (IC50) of 809 nM.
